Converted amounts (≈) assume the structure as drawn. The source made the active and inactive calls. The rule behind the calls is not given here.
Key:
[1] = system: Enterococcus faecalis; test: Induction of morphological changes in vancomycin-resistant Enterococcus faecalis ATCC51299 assessed as appearance of died bacterial surface at 4 times MIC measured for 5 hrs by field emission scanning electron microscopy based analysis; assay type: functional, organism-based
[2] = system: Enterococcus faecalis; test: Antibacterial activity against vancomycin-resistant Enterococcus faecalis ATCC51299 at sub-MIC concentration measured after 24 hrs by CLSI based broth microdilution method; assay type: functional, organism-based
[3] = system: Staphylococcus aureus; test: Induction of morphological changes in biofilm of methicillin-resistant Staphylococcus aureus assessed as appearance of destroyed biofilm at 1 to 4 times MIC incubated for 24 hrs by DAPI staining based fluorescence microscopy analysis; assay type: functional, organism-based
[4] = system: Enterococcus faecalis; test: Induction of morphological changes in biofilm of vancomycin-resistant Enterococcus faecalis ATCC51299 assessed as appearance of destroyed biofilm at 1 to 4 times MIC incubated for 24 hrs by DAPI staining based fluorescence microscopy analysis; assay type: functional, organism-based
[5] = system: Enterococcus faecalis; test: Antimicrobial activity against vancomycin-resistant Enterococcus faecalis ATCC51299 assessed as reduction in bacterial growth in presence of phosphatidylglycerol by checkerboard broth dilution method; assay type: functional, organism-based
[6] = system: Cell membrane; test: Induction of cell membrane damage in vancomycin-resistant Enterococcus faecalis ATCC51299 assessed as increase in ROS accumulation at 4 times MIC incubated for 1 hr by fluorescence based analysis; assay type: subcellular
[7] = system: Enterococcus faecalis; test: Antibiofilm activity in vancomycin-resistant Enterococcus faecalis ATCC51299 assessed as increase in biofilm destruction incubated for 24 hrs by crystal violet staining based analysis; assay type: functional, organism-based
[8] = system: Enterococcus faecalis; test: Induction of morphological changes in biofilm of vancomycin-resistant Enterococcus faecalis ATCC51299 assessed as appearance of broken biofilm at 1 to 4 times MIC incubated for 24 hrs by DAPI staining based fluorescence microscopy analysis; assay type: functional, organism-based
[9] = system: Cell membrane; test: Induction of cell membrane depolarization in methicillin-resistant Staphylococcus aureus assessed as reduction in fluorescence intensity measured for 30 mins by DiSC3(5) dye-based fluorescence assay; assay type: subcellular
[10] = system: Staphylococcus aureus; test: Bactericidal activity against methicillin-resistant Staphylococcus aureus assessed as reduction in number of bacteria at 2 times MIC measured within 15 mins by time-kill assay; assay type: functional, organism-based
[11] = system: Staphylococcus aureus; test: Bactericidal activity against methicillin-resistant Staphylococcus aureus assessed as reduction in number of bacteria at 1 time MIC measured within 40 mins by time-kill assay; assay type: functional, organism-based
[12] = system: Cell membrane; test: Induction of cell membrane damage in methicillin-resistant Staphylococcus aureus assessed as increase in ROS accumulation at 4 times MIC incubated for 1 hr by fluorescence based analysis; assay type: subcellular
[13] = system: Staphylococcus aureus; test: Induction of morphological changes in methicillin-resistant Staphylococcus aureus assessed as appearance of died bacterial surface at 4 times MIC measured for 5 hrs by field emission scanning electron microscopy based analysis; assay type: functional, organism-based
[14] = system: Staphylococcus aureus; test: Induction of morphological changes in methicillin-resistant Staphylococcus aureus assessed as appearance of clustered bacterial surface at 4 times MIC measured for 5 hrs by field emission scanning electron microscopy based analysis; assay type: functional, organism-based
[15] = system: Staphylococcus aureus; test: Bactericidal activity against methicillin-resistant Staphylococcus aureus measured after 24 hrs by CLSI based broth microdilution method; assay type: functional
[16] = system: Staphylococcus aureus; test: Induction of morphological changes in methicillin-resistant Staphylococcus aureus assessed as appearance of ruptured bacterial surface at 4 times MIC measured for 5 hrs by field emission scanning electron microscopy based analysis; assay type: functional, organism-based
[17] = system: Enterococcus faecalis; test: Antimicrobial activity against vancomycin-resistant Enterococcus faecalis ATCC51299 assessed as reduction in bacterial growth in presence of peptidoglycan by checkerboard broth dilution method; assay type: functional, organism-based
[18] = system: Staphylococcus aureus; test: Induction of morphological changes in methicillin-resistant Staphylococcus aureus assessed as appearance of flocculated bacterial surface at 4 times MIC measured for 5 hrs by field emission scanning electron microscopy based analysis; assay type: functional, organism-based
[19] = system: Enterococcus faecalis; test: Antimicrobial activity against vancomycin-resistant Enterococcus faecalis ATCC51299 assessed as increase in cell membrane fluidity at upto 4 times MIC incubated for 35 mins by Laurdan-GP dye based spectramax gemini XPS microplate reader analysis; assay type: functional, organism-based
[20] = system: Staphylococcus aureus; test: Induction of morphological changes in biofilm of methicillin-resistant Staphylococcus aureus assessed as appearance of broken biofilm at 1 to 4 times MIC incubated for 24 hrs by DAPI staining based fluorescence microscopy analysis; assay type: functional, organism-based
[21] = system: Staphylococcus aureus; test: Antibiofilm activity in methicillin-resistant Staphylococcus aureus assessed as increase in biofilm destruction incubated for 24 hrs by crystal violet staining based analysis; assay type: functional, organism-based
[22] = system: Enterococcus faecalis; test: Antibacterial activity against vancomycin-resistant Enterococcus faecalis ATCC51299 measured after 20 passages by broth microdilution method; assay type: functional, organism-based
[23] = system: Enterococcus faecalis; test: Induction of morphological changes in vancomycin-resistant Enterococcus faecalis ATCC51299 assessed as appearance of flocculated bacterial surface at 4 times MIC measured for 5 hrs by field emission scanning electron microscopy based analysis; assay type: functional, organism-based
[24] = system: Cell membrane; test: Induction of cell membrane depolarization in vancomycin-resistant Enterococcus faecalis ATCC51299 assessed as reduction in fluorescence intensity measured for 30 mins by DiSC3(5) dye-based fluorescence assay; assay type: subcellular
[25] = system: Enterococcus faecalis; test: Antimicrobial activity against vancomycin-resistant Enterococcus faecalis ATCC51299 assessed as reduction in bacterial growth in presence of phosphatidylethanolamine by checkerboard broth dilution method; assay type: functional, organism-based
[26] = system: Staphylococcus aureus; test: Antimicrobial activity against methicillin-resistant Staphylococcus aureus assessed as increase in cell membrane fluidity at upto 4 times MIC incubated for 35 mins by Laurdan-GP dye based spectramax gemini XPS microplate reader analysis; assay type: functional, organism-based
[27] = system: Staphylococcus aureus; test: Antibacterial activity against methicillin-resistant Staphylococcus aureus measured after 20 passages by broth microdilution method; assay type: functional, organism-based
[28] = system: Enterococcus faecalis; test: Induction of morphological changes in vancomycin-resistant Enterococcus faecalis ATCC51299 assessed as appearance of clustered bacterial surface at 4 times MIC measured for 5 hrs by field emission scanning electron microscopy based analysis; assay type: functional, organism-based
[29] = system: Cell membrane; test: Induction of cell membrane damage in vancomycin-resistant Enterococcus faecalis ATCC51299 assessed as increase in nucleic acid leakage at 4 times MIC incubated for 2 hrs by absorbance based analysis; assay type: subcellular
[30] = system: Enterococcus faecalis; test: Bactericidal activity against vancomycin-resistant Enterococcus faecalis ATCC51299 assessed as reduction in number of bacteria at 1 time MIC measured within 40 mins by time-kill assay; assay type: functional, organism-based
[31] = system: Staphylococcus aureus; test: Antimicrobial activity against methicillin-resistant Staphylococcus aureus assessed as reduction in bacterial growth in presence of peptidoglycan by checkerboard broth dilution method; assay type: functional, organism-based
[32] = system: Staphylococcus aureus; test: Antimicrobial activity against methicillin-resistant Staphylococcus aureus assessed as reduction in bacterial growth in presence of phosphatidylglycerol by checkerboard broth dilution method; assay type: functional, organism-based
[33] = system: Cell membrane; test: Induction of cell membrane damage in methicillin-resistant Staphylococcus aureus assessed as increase in nucleic acid leakage at 4 times MIC incubated for 2 hrs by absorbance based analysis; assay type: subcellular
[34] = system: Enterococcus faecalis; test: Bactericidal activity against vancomycin-resistant Enterococcus faecalis ATCC51299 measured after 24 hrs by CLSI based broth microdilution method; assay type: functional
[35] = system: Enterococcus faecalis; test: Induction of morphological changes in biofilm of vancomycin-resistant Enterococcus faecalis ATCC51299 assessed as decrease in biofilm density at 1 to 4 times MIC incubated for 24 hrs by DAPI staining based fluorescence microscopy analysis; assay type: functional, organism-based
[36] = system: Staphylococcus aureus; test: Antibacterial activity against methicillin-resistant Staphylococcus aureus measured after 24 hrs by CLSI based broth microdilution method; assay type: functional
[37] = system: Enterococcus faecalis; test: Induction of morphological changes in vancomycin-resistant Enterococcus faecalis ATCC51299 assessed as appearance of ruptured bacterial surface at 4 times MIC measured for 5 hrs by field emission scanning electron microscopy based analysis; assay type: functional, organism-based

Question: What does the source list for `C=CCCCCCCCCCCCc1cc(O)cc(O)c1`?
Answer: Activity [1]: Active; Activity [2]: Active; Activity [3]: Active; Activity [4]: Active; Activity [5]: Active; Activity [6]: Active; Activity [7]: Dose-Dependent Effect; Activity [8]: Active; Activity [9]: Active; Activity [10]: Active; Activity [11]: Active; Activity [12]: Active; Activity [13]: Active; Activity [14]: Active; MBC [15]: 4 µg/mL (≈ 13.8 µM); Activity [16]: Active; Activity [17]: inactive; Activity [18]: Active; Activity [19]: Active; Activity [20]: Active; Activity [21]: Dose-Dependent Effect; Activity [22]: inactive; Activity [23]: Active; Activity [24]: Active; Activity [25]: inactive; Activity [26]: Active; Activity [27]: inactive; Activity [28]: Active; Activity [29]: Active; Activity [30]: Active; Activity [31]: Active; Activity [32]: inactive; Activity [33]: Active; MBC [34]: 4 µg/mL (≈ 13.8 µM); Activity [35]: Active; Activity [36]: Active; MIC [36]: 4 µg/mL (≈ 13.8 µM); Activity [37]: Active

Question: For `C=CCCCCCCCCCCCc1cc(O)cc(O)c1C(=O)O`, which Activity [1] is on record?
Answer: Its Activity is “Active”.

Question: What about the Activity [2] of the same compound?
Answer: The Activity was “Active”.

Question: And the Activity [3]?
Answer: The Activity was “Active”.

Question: What about the Activity [4] of the same compound?
Answer: Its Activity is “Active”.

Question: And the Activity [5]?
Answer: The Activity was “Active”.

Question: What about the Activity [6] of the same compound?
Answer: Its Activity is “Active”.

Question: And the Activity [7]?
Answer: Its Activity is “Dose-Dependent Effect”.

Question: And the Activity [8]?
Answer: The Activity was “Active”.

Question: What about the Activity [9] of the same compound?
Answer: Its Activity is “Active”.

Question: And the Activity [10]?
Answer: Its Activity is “Active”.

Question: What about the Activity [11] of the same compound?
Answer: The Activity was “Active”.

Question: What about the Activity [12] of the same compound?
Answer: Its Activity is “Active”.

Question: And the Activity [13]?
Answer: Its Activity is “Active”.

Question: What about the Activity [14] of the same compound?
Answer: The Activity was “Active”.

Question: What about the MBC [15] of the same compound?
Answer: Its MBC is 4 µg/mL (≈ 12 µM).

Question: And the Activity [16]?
Answer: Its Activity is “Active”.

Question: And the Activity [17]?
Answer: Its Activity is “inactive”.

Question: What about the Activity [18] of the same compound?
Answer: The Activity was “Active”.

Question: What about the Activity [19] of the same compound?
Answer: The Activity was “Active”.

Question: And the Activity [20]?
Answer: Its Activity is “Active”.

Question: And the Activity [21]?
Answer: The Activity was “Dose-Dependent Effect”.

Question: And the Activity [22]?
Answer: The Activity was “inactive”.

Question: What about the Activity [23] of the same compound?
Answer: Its Activity is “Active”.

Question: What about the Activity [24] of the same compound?
Answer: Its Activity is “Active”.

Question: And the Activity [25]?
Answer: The Activity was “inactive”.

Question: And the Activity [26]?
Answer: Its Activity is “Active”.

Question: What about the Activity [27] of the same compound?
Answer: Its Activity is “inactive”.

Question: And the Activity [28]?
Answer: Its Activity is “Active”.

Question: What about the Activity [29] of the same compound?
Answer: Its Activity is “Active”.

Question: And the Activity [30]?
Answer: Its Activity is “Active”.

Question: And the Activity [31]?
Answer: Its Activity is “Active”.

Question: What about the Activity [32] of the same compound?
Answer: Its Activity is “inactive”.

Question: What about the Activity [33] of the same compound?
Answer: Its Activity is “Active”.

Question: What about the MBC [34] of the same compound?
Answer: The MBC was 4 µg/mL (≈ 12 µM).

Question: What about the Activity [35] of the same compound?
Answer: Its Activity is “Active”.

Question: What about the Activity [36] of the same compound?
Answer: Its Activity is “Active”.

Question: What about the MIC [36] of the same compound?
Answer: The MIC was 4 µg/mL (≈ 12 µM).

Question: What about the Activity [37] of the same compound?
Answer: The Activity was “Active”.
